One assay has as its target T1, A2a receptor (Rattus norvegicus, UniProt P30543).
T1 construct: The A2a receptor-rich striatal nucleus was dissected and homogenized in buffer solution; from tissue; host or cells: rat striatum homogenate
Nature of the assay: Ex vivo binding study to show duration of receptor occupancy (striatal homogenate, 3H-SCH 58261). The assay is classed as in vivo. The following applies: rats dosed 1 mg/kg; for receptor occupancy at 1 mg/kg: rat, 4 hours prior to sacrifice, read-out: decrease in 3H-SCH 58261 binding (receptor occupancy). As for the experimental part: Ex Vivo Binding Study to Show Duration of Receptor Occupancy:
Rats were dosed with 1 mg/kg of the compound of formula I and the compound of formula II (generically disclosed in U.S. Pat. No. 6,897,217)
[drawing 4] for 4, 8, 12, and 16 hours prior to sacrifice and removal of brains. The A2a receptor-rich striatal nucleus was dissected and homogenized in buffer solution. Striatal homogenate was incubated with the A2a antagonist radioligand ^3H-SCH 58261 (see WO 96/38728) prior to separation of bound and free radioactivity by filtration. Bound radioligand on filters was dried, soaked with scintillation fluid, and counted. Homogenates from striata of vehicle-treated rats treated with the same experimental conditions defined the quantity of bound radioligand in the absence of test compound.

For assay [1], the system named is haloperidol-induced catalepsy. Nature of the assay: Haloperidol-induced catalepsy in the rat. The assay is classed as in vivo. The note with it: @ 4 h, rats. As for the experimental part: Haloperidol-Induced Catalepsy in the Rat Male Sprague-Dawley rats (Charles River, Calco, Italy) weighing 175-200 g are used. The cataleptic state is induced by the subcutaneous administration of the dopamine receptor antagonist haloperidol (1 mg/kg, sc), 90 min before testing the animals on the vertical grid test. For this test, the rats are placed on the wire mesh cover of a 25×43 plexiglass cage placed at an angle of about 70 degrees with the bench table. The rat is placed on the grid with all four legs abducted and extended (“frog posture”). The use of such an unnatural posture is essential for the specificity of this test for catalepsy. The time span from placement of the paws until the first complete removal of one paw (descent latency) is measured maximally for 120 sec. The selective A2A adenosine antagonists under evaluation are administered orally at doses ranging between 0.03 and 3 mg/kg, 1 and 4 h before scoring the animals.

The subject of a further assay is haloperidol-induced EPS. The assay is described as follows: EPS assay in haloperidol-sensitized Cebus apella monkeys. The assay is classed as in vivo. The following applies: 30 mg/kg co-administered with haloperidol 0.3 mg/kg. As for the experimental part: A test compound is administered orally (p.o.) at a dose ranging from 0.3-30 mg/kg, in conjunction with haloperidol. The studies are conducted using a within-subjects design such that each monkey receives all treatments (vehicle and doses of test compound) in a crossover, balanced design. The reduction in the maximum EPS score, as well as the dose-dependent delay in the onset of EPS are determined. In the EPS assay, four haloperidol-sensitized monkeys were co-administered the compound of formula I (30 mg/kg) and haloperidol (0.3 mg/kg) in a banana. A scoring system to rate the severity of each symptom was employed over a 6 hour observation period.

The target of another assay is T2, A1 receptor (Homo sapiens, UniProt P30542).
T2 sequence (P30542 1-326): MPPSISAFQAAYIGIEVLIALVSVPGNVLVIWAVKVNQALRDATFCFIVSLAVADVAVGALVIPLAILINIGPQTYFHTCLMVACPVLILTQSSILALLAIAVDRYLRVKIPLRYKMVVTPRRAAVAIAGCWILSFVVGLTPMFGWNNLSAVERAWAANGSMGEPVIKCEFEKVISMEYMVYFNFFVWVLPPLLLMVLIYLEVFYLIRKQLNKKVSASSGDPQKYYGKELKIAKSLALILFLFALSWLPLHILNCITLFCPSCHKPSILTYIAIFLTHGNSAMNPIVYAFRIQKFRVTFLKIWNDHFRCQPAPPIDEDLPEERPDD
The assay is described as follows: Human adenosine A1 receptor competition binding assay (selectivity vs A2a). The note with it: A1 ligand [3H]-DPCPX. As for the experimental part:
(§1) Human Adenosine A2a and A1 Receptor Competition Binding Assay Protocol
(§2) Membrane dilution buffer: Dulbecco's Phosphate Buffered Saline (Gibco/BRL)+10 mM MgCl2.
(§3) Compound Dilution Buffer: Dulbecco's Phosphate Buffered Saline (Gibco/BRL)+10 mM MgCl2 supplemented with 1.6 mg/ml methyl cellulose and 16% DMSO. Prepared fresh daily.
A1: [3H]-DPCPX, AmershamPharmacia Biotech, Piscataway, N.J. Stock is prepared at 2 nM in membrane dilution buffer. Final assay concentration is 1 nM.
A1: To determine non-specific binding, add 100 μM NECA (RBI, Natick, Mass.). Working stock is prepared at 400 μM in compound dilution buffer.
(§4) Prepare 1 mM stock solutions of compounds in 100% DMSO. Dilute in compound dilution buffer. Test at 10 concentrations ranging from 3 μM to 30 pM. Prepare working solutions at 4× final concentration in compound dilution buffer.
Perform assays in deep well 96 well plates. Total assay volume is 200 μl. Add 50 μl compound dilution buffer (total ligand binding) or 50 μl CGS 15923 working solution (A2a non-specific binding) or 50 μl NECA working solution (A1 non-specific binding) or 50 μl of drug working solution. Add 50 μl ligand stock ([3H]-SCH 58261 for A2a, [3H]-DPCPX for A1). Add 100 μl of diluted membranes containing the appropriate receptor. Mix. Incubate at room temperature for 90 minutes. […]
Selectivity is determined by dividing Ki for A1 receptor by Ki for A2a receptor. […]

The test system of the next assay is 6-OHDA lesioned rats. The assay is described as follows: 6-OHDA lesion of the middle forebrain bundle in rats (contralateral turning with subthreshold L-DOPA). It counts as in vivo, rat. The note with it: combined with sub-threshold L-DOPA. As for the experimental part:
6-OHDA Lesion of the Middle Forebrain Bundle in Rats
Adult male Sprague-Dowley rats (Charles River, Calco, Como, Italy), weighing 275-300 g, are used in all experiments. The rats are housed in groups of 4 per cage, with free access to food and water, under controlled temperature and 12 hour light/dark cycle. The day before the surgery the rats are fasted over night with water ad libitum.
Unilateral 6-hydroxydopamine (6-OHDA) lesion of the middle forebrain bundle is performed according to the method described by Ungerstedt et al. (Brain Research, 1971, 6-OHDA and Cathecolamine Neurons, North Holland, Amsterdam, 101-127), with minor changes. Briefly, the animals are anaesthetized with chloral hydrate (400 mg/kg, ip) and treated with desipramine (10 mpk, ip) 30 min prior to 6-OHDA injection in order to block the uptake of the toxin by the noradrenergic terminals. Then, the animals are placed in a stereotaxic frame. The skin over the skull is reflected and the stereotaxic coordinates (−2.2 posterior from bregma (AP), +1.5 lateral from bregma (ML), 7.8 ventral from dura (DV) are taken, according to the atlas of Pellegrino et al (Pellegrino L. J., Pellegrino A. S. and Cushman A. J., A Stereotaxic Atlas of the Rat Brain, 1979, New York: Plenum Press). A burr hole is then placed in the skull over the lesion site and a needle, attached to a Hamilton syringe, is lowered into the left MFB. Then 8 μg 6-OHDA-HCl is dissolved in 4 μl of saline with 0.05% ascorbic acid as antioxidant, and infused at the constant flow rate of 1 μl/1 min using an infusion pump. The needle is withdrawn after additional 5 min and the surgical wound is closed and the animals left to recover for 2 weeks.
Any rat not showing at least 200 complete turns/2 h is not included in the study.
Selected rats receive the test drug 3 days after the priming test (maximal dopamine receptor supersensitivity).

Assay [2] addresses T3, Human A2a Adenosine Receptor (Homo sapiens, UniProt P29274).
T3 construct: purchased Perkin Elmer Life Sciences RBHA2AM
Nature of the assay: Human adenosine A2a receptor competition binding assay. The note with it: [3H]-SCH 58261 0.5 nM, human A2a membranes. The protocol: as §1
A2a: Human A2a Adenosine Receptor membranes, Catalog #RBHA2AM, Perkin Elmer Life Sciences, Shelton Conn. Dilute to 17 μg/100 μl in membrane dilution buffer (see below).
as §2, §3
A2a: [3H]-SCH 58261, custom synthesis, AmershamPharmacia Biotech, Piscataway, N.J. Stock is prepared at 1 nM in membrane dilution buffer. Final assay concentration is 0.5 nM.
A2a: To determine non-specific binding, add 100 nM CGS 15923 (RBI, Natick, Mass.). Working stock is prepared at 400 nM in compound dilution buffer.
as §4
Perform assays in deep well 96 well plates. Total assay volume is 200 μl. Add 50 μl compound dilution buffer (total ligand binding) or 50 μl CGS 15923 working solution (A2a non-specific binding) or 50 μl NECA working solution (A1 non-specific binding) or 50 μl of drug working solution. Add 50 μl ligand stock ([3H]-SCH 58261 for A2a, [3H]-DPCPX for A1). […]

T1 sequence (P30543 whole entry): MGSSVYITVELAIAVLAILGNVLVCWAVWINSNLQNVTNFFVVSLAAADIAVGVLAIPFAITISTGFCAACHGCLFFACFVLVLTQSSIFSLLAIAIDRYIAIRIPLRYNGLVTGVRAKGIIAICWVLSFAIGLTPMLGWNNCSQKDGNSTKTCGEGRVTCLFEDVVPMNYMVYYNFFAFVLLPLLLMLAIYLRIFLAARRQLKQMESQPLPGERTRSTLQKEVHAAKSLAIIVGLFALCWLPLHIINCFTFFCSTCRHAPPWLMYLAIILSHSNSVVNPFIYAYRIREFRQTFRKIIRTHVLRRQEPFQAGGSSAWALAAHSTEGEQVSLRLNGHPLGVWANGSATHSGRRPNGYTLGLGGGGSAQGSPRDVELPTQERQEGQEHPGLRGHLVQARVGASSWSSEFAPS
T3 sequence (P29274 whole entry): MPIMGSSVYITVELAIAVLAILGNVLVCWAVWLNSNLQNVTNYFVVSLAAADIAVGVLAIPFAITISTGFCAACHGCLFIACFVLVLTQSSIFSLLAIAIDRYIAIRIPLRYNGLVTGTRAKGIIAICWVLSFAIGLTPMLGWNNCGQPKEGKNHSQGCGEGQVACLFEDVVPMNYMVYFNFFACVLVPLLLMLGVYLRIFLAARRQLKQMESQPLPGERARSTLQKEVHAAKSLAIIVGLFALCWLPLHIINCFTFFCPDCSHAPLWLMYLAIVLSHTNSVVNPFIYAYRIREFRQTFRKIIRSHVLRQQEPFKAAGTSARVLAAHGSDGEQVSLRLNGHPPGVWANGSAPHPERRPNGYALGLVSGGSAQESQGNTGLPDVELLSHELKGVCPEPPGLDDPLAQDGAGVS

Turning to `CC#Cc1nc2c3cnn(CCN4CCN(c5cc(-c6noc(C)n6)ccc5F)CC4)c3nc(N)n2n1` [formula II, reference compound], the receptor occupancy at 1 mg/kg on A2a receptor amounted to 47%. For the same compound, at A2a receptor (8 hours), the “3H-SCH 58261 radioligand binding (receptor occupancy)” value was “restored to near vehicle-treated levels”.
As for `CC#Cc1nc2c3cnn(CCN4CCN(c5cc6c(C)noc6cc5F)CC4)c3nc(N)n2n1` [compound of formula I, 7-[2-[4-(6-fluoro-3-methyl-1,2-benzisoxazol-5-yl)-1-piperazinyl]ethyl]-2-(1-propynyl)-7H-pyrazolo-[4,3-e]-[1,2,4]-triazolo[1,5-c]pyrimidin-5-amine], the inhibition of catalepsy in assay [1] (0.3 mpk orally) is on record as 28%; in assay [1] (1 mpk orally), 47%; in assay [1] (3 mpk orally), 53%. Moreover, in the assay with haloperidol-induced EPS (6 hr observation period), the “effect on haloperidol-induced EPS, three of four subjects” value was “completely blocked haloperidol-induced EPS”. Further, the “effect on haloperidol-induced EPS, fourth subject” value in the assay on haloperidol-induced EPS (compared with haloperidol alone) was “delayed onset and reduced severity of EPS”. Also, the “Selectivity (Ki for A1 receptor divided by Ki for A2a receptor)” value on A1 receptor is on record as “greater than 2500 fold”. For the same compound, the receptor occupancy at 1 mg/kg on A2a receptor is 42%. At A2a receptor (12 hours), the “displacement of radiolabel (3H-SCH 58261)” value stood at 40%. Moreover, the contralateral turning was found to be 218±142 rotations with 6-OHDA lesioned rats (0.1 mpk orally), 406±167 rotations in the assay on 6-OHDA lesioned rats (0.3 mpk orally), 360±178 rotations in the assay on 6-OHDA lesioned rats (1 mpk orally) and 403±125 rotations in the assay with 6-OHDA lesioned rats (3 mpk orally). Moreover, the affinity in assay [2], expressed as Ki, was 0.43 nM.

Source of the values: US8389532B2, “7-[2-[4-(6-fluoro-3-methyl-1,2-benzisoxazol-5-yl)-1-piperazinyl]ethyl]-2-(1-propynyl)-7H-pyrazolo-[4,3-E]-[1,2,4]-triazolo-[1,5-C]-pyrimidin-5-amine” (Merck Sharp & Dohme Corp., priority 2005, dated 2013).
